≈ marks a conversion by molar mass, not a printed value.
Key:
[1] = Lipophilicity, log k of the compound at 100 ug/ml by micellar electrokinetic chromatography; format: physicochemical
Staphylococcus aureus [2] = assay: Antibacterial activity against Staphylococcus aureus ATCC 6538 cultured in MH medium assessed as reduction in bacterial growth incubated for 48 hrs by microbroth dilution method; format: functional; conditions: ATCC 6538, 48 h
Staphylococcus aureus [3] = assay: Bactericidal activity against Staphylococcus aureus ATCC 6538 cultured in MH medium assessed as reduction in bacterial survival incubated for 48 hrs by microbroth dilution method; format: functional; conditions: ATCC 6538, 48 h
Staphylococcus aureus [4] = assay: Antibacterial activity against methicillin resistant Staphylococcus aureus N315 cultured in MH medium assessed as reduction in bacterial growth incubated for 48 hrs by microbroth dilution method; format: functional; conditions: N315, 48 h
Staphylococcus aureus [5] = assay: Bactericidal activity against methicillin resistant Staphylococcus aureus N315 cultured in MH medium assessed as reduction in bacterial survival incubated for 48 hrs by microbroth dilution method; format: functional; conditions: N315, 48 h
[6] = test system: Staphylococcus epidermidis; assay: Antibacterial activity against Staphylococcus epidermidis ATCC 14990 cultured in MH medium assessed as reduction in bacterial growth incubated for 48 hrs by microbroth dilution method; format: functional; conditions: ATCC 14990, 48 h
[7] = test system: Staphylococcus epidermidis; assay: Bactericidal activity against Staphylococcus epidermidis ATCC 14990 cultured in MH medium assessed as reduction in bacterial survival incubated for 48 hrs by microbroth dilution method; format: functional; conditions: ATCC 14990, 48 h
Enterococcus hirae [8] = assay: Antibacterial activity against Enterococcus hirae ATCC 1052 cultured in BHI medium assessed as reduction in bacterial growth incubated for 48 hrs by microbroth dilution method; format: functional; conditions: ATCC 1052, 48 h
Enterococcus hirae [9] = assay: Bactericidal activity against Enterococcus hirae ATCC 1052 cultured in BHI medium assessed as reduction in bacterial survival incubated for 48 hrs by microbroth dilution method; format: functional; conditions: ATCC 1052, 48 h
Bacillus spizizenii [10] = assay: Antibacterial activity against Bacillus subtilis ATCC 6633 cultured in MH medium assessed as reduction in bacterial growth incubated for 48 hrs by microbroth dilution method; format: functional; conditions: ATCC 6633, 48 h
Bacillus spizizenii [11] = assay: Bactericidal activity against Bacillus subtilis ATCC 6633 cultured in MH medium assessed as reduction in bacterial survival incubated for 48 hrs by microbroth dilution method; format: functional; conditions: ATCC 6633, 48 h
Escherichia coli [12] = assay: Antibacterial activity against Escherichia coli ATCC 8739 cultured in MH medium assessed as reduction in bacterial growth incubated for 48 hrs by microbroth dilution method; format: functional; conditions: ATCC 8739, 48 h
Escherichia coli [13] = assay: Bactericidal activity against Escherichia coli ATCC 8739 cultured in MH medium assessed as reduction in bacterial survival incubated for 48 hrs by microbroth dilution method; format: functional; conditions: ATCC 8739, 48 h
Pseudomonas aeruginosa [14] = assay: Antibacterial activity against Pseudomonas aeruginosa ATCC 9027 cultured in MH medium assessed as reduction in bacterial growth incubated for 48 hrs by microbroth dilution method; format: functional; conditions: ATCC 9027, 48 h
Pseudomonas aeruginosa [15] = assay: Bactericidal activity against Pseudomonas aeruginosa ATCC 9027 cultured in MH medium assessed as reduction in bacterial survival incubated for 48 hrs by microbroth dilution method; format: functional; conditions: ATCC 9027, 48 h
Proteus vulgaris [16] = assay: Antibacterial activity against Proteus vulgaris NCTC 4635 cultured in MH medium assessed as reduction in bacterial growth incubated for 48 hrs by microbroth dilution method; format: functional; conditions: NCTC 4635, 48 h
Proteus vulgaris [17] = assay: Bactericidal activity against Proteus vulgaris NCTC 4635 cultured in MH medium assessed as reduction in bacterial survival incubated for 48 hrs by microbroth dilution method; format: functional; conditions: NCTC 4635, 48 h
Staphylococcus aureus [18] = assay: Antibacterial activity against methicillin resistant Staphylococcus aureus 6347 cultured in MH medium assessed as reduction in bacterial growth incubated for 48 hrs by microbroth dilution method; format: functional; conditions: Staphylococcus aureus, 6347, 48 h
Staphylococcus aureus [19] = assay: Bactericidal activity against methicillin resistant Staphylococcus aureus 6347 cultured in MH medium assessed as reduction in bacterial survival incubated for 48 hrs by microbroth dilution method; format: functional; conditions: Staphylococcus aureus, 6347, 48 h
[20] = test system: Staphylococcus epidermidis; assay: Antibacterial activity against methicillin resistant Staphylococcus epidermidis ATCC 13199 cultured in MH medium assessed as reduction in bacterial growth incubated for 48 hrs by microbroth dilution method; format: functional; conditions: ATCC 13199, 48 h
[21] = test system: Staphylococcus epidermidis; assay: Bactericidal activity against methicillin resistant Staphylococcus epidermidis ATCC 13199 cultured in MH medium assessed as reduction in bacterial survival incubated for 48 hrs by microbroth dilution method; format: functional; conditions: ATCC 13199, 48 h
Streptococcus pneumoniae [22] = assay: Antibacterial activity against Streptococcus pneumoniae cultured in MH medium assessed as reduction in bacterial growth incubated for 48 hrs by microbroth dilution method; format: functional
Streptococcus pneumoniae [23] = assay: Bactericidal activity against Streptococcus pneumoniae cultured in MH medium assessed as reduction in bacterial survival incubated for 48 hrs by microbroth dilution method; format: functional
Serratia marcescens [24] = assay: Antibacterial activity against Serratia marcescens ATCC 12795 cultured in MH medium assessed as reduction in bacterial growth incubated for 48 hrs by microbroth dilution method; format: functional; conditions: ATCC 12795, 48 h
Serratia marcescens [25] = assay: Bactericidal activity against Serratia marcescens ATCC 12795 cultured in MH medium assessed as reduction in bacterial survival incubated for 48 hrs by microbroth dilution method; format: functional; conditions: ATCC 12795, 48 h
Proteus vulgaris [26] = assay: Resistance index, ratio of MIC for Proteus vulgaris NCTC 4635 measured after 5 dilution steps to MIC for Proteus vulgaris NCTC 4635 measured after 48 hrs incubation by microbroth dilution method; format: functional

COc1c(N2CCNC(C)C2)c(F)cc2c(=O)c(C(=O)O)cn(C3CC3)c12 (stereo unspecified) [GATIFLOXACIN]
log K [1]: 0.101 | MIC (Staphylococcus aureus [2]): 0.25 mg/L (≈ 0.666 µM) | MBC (Staphylococcus aureus [3]): 0.25 mg/L (≈ 0.666 µM) | MIC (Staphylococcus aureus [4]): 0.125 mg/L (≈ 0.333 µM) | MBC (Staphylococcus aureus [5]): 0.125 mg/L (≈ 0.333 µM) | MIC [6]: 0.125 mg/L (≈ 0.333 µM) | MBC [7]: 0.25 mg/L (≈ 0.666 µM) | MIC (Enterococcus hirae [8]): 8 mg/L (≈ 21.3 µM) | MBC (Enterococcus hirae [9]): 16 mg/L (≈ 42.6 µM) | MIC (Bacillus spizizenii [10]): 0.032 mg/L (≈ 0.0852 µM) | MBC (Bacillus spizizenii [11]): 0.063 mg/L (≈ 0.168 µM) | MIC (Escherichia coli [12]): 0.016 mg/L (≈ 0.0426 µM) | MBC (Escherichia coli [13]): 0.032 mg/L (≈ 0.0852 µM) | MIC (Pseudomonas aeruginosa [14]): 0.25 mg/L (≈ 0.666 µM) | MBC (Pseudomonas aeruginosa [15]): 0.25 mg/L (≈ 0.666 µM) | MIC (Proteus vulgaris [16]): 0.008 mg/L (≈ 0.0213 µM) | MBC (Proteus vulgaris [17]): 0.008 mg/L (≈ 0.0213 µM) | MIC (Staphylococcus aureus [18]): 0.125 mg/L (≈ 0.333 µM) | MBC (Staphylococcus aureus [19]): 0.125 mg/L (≈ 0.333 µM) | MIC [20]: 0.063 mg/L (≈ 0.168 µM) | MBC [21]: 0.063 mg/L (≈ 0.168 µM) | MIC (Streptococcus pneumoniae [22]): 1 mg/L (≈ 2.66 µM) | MBC (Streptococcus pneumoniae [23]): 256 mg/L (≈ 682 µM) | MIC (Serratia marcescens [24]): 0.25 mg/L (≈ 0.666 µM) | MBC (Serratia marcescens [25]): 0.5 mg/L (≈ 1.33 µM) | Ratio (Proteus vulgaris [26]): 32
